# According to paper PMC8605905 (Oxidative Medicine and Cellular Longevity, 2021):
# Where two headings read alike, the source gives them in different places.
# Columns and labels:
# [1] = DPPH radical-scavenging assay; details: compounds 10–160 μM, 100 μM DPPH, 30 min, n = 3
# Procedure: Stable free radical 1,1-diphenyl-2-picrylhydrazyl (DPPH) (Sigma-Aldrich) was applied to test the potential radical-scavenging activity of the coumarin-chalcone derivatives. In brief, the compounds (10–160 μM) were added to an ethanol solution containing 100 μM DPPH. The mixture was vortexed for 15 sec, left to stand for 30 min at room temperature, and scavenging capacity was measured at a wavelength of 517 nm using a Multiskan GO microplate spectrophotometer (Thermo Fisher Scientific, Waltham, MA, USA).
# Aβ42 peptide = biological target: T1, Aβ42 peptide (Homo sapiens, UniProt P05067); test: Thioflavin T assay of Aβ aggregation; type: biochemical; details: Aβ42 5 μM, compound 5–20 μM, 37°C 48 h; read-out: Aβ aggregation inhibition EC50 (Thioflavin T)
# T1 construct: containing Aβ42 peptide (5 μM); purchased AnaSpec; host or cells: synthetic
# Procedure: In brief, the tested compound (5–20 μM) was added to a buffer solution (150 mM NaCl, 20 mM Tris-HCl (pH 8.0)) containing Aβ42 peptide (5 μM) and incubated at 37°C for 48 h. Thioflavin T (10 μM) (Sigma-Aldrich) then was added, and the mixture was incubated for 5 min at room temperature. Subsequently, the fluorescence intensity was quantified at 420/485 nm of excitation/emission wavelengths using a FLx800 microplate reader (Bio-Tek, Winooski, VT, USA). EC50 was computed as described.
# Aβ-GFP SH-SY5Y cells [2] = test: High content analysis of Aβ-GFP fluorescence; type: cell-based, Human; details: for EC50: Homo sapiens, read-out: EC50 in Aβ aggregation inhibition (GFP fluorescence); for Concentration significantly augmenting green fluorescence intensity (Aβ-GFP): day 8
# Procedure: Human neuroblastoma SH-SY5Y-derived Aβ-GFP [23] and ∆K280 tauRD-DsRed cells were kept in DMEM/nutrient mixture F12 (DMEM/F12) containing 10% FBS, 5 μg/ml blasticidin, and 100 μg/ml hygromycin (InvivoGen, San Diego, CA, USA). Doxycycline (Sigma-Aldrich) was applied to induce the expression of Aβ-GFP (5 μg/ml doxycycline) or ∆K280 tauRD-DsRed (2 μg/ml doxycycline).
# On day 1, Aβ-GFP or ∆K280 tauRD-DsRed SH-SY5Y cells were seeded into 96-well plates (2.5 × 10^4/well) and treated with retinoic acid (10 μM; Sigma-Aldrich) to prompt neuronal differentiation. […] Image Acquisition and Analysis Software (MetaXpress) (Molecular Devices, Sunnyvale, CA, USA) was used to analyse the images. CellROX Orange (5 μM; Molecular Probes, Eugene, OR, USA) (for Aβ-GFP cells) or dichloro-dihydro-fluorescein diacetate (DCFH-DA, 10 μM; Invitrogen) (for ∆K280 tauRD-DsRed cells) was added to the cells and incubated at 37°C for 30 min.
# Aβ-GFP SH-SY5Y cells [3] = test: ROS assay (CellROX Orange) in Aβ-GFP cells; type: cell-based, Human; details: tested 1.2–5 μM
# Procedure: (§1) On day 1, Aβ-GFP or ∆K280 tauRD-DsRed SH-SY5Y cells were seeded into 96-well plates (2.5 × 10^4/well) and treated with retinoic acid (10 μM; Sigma-Aldrich) to prompt neuronal differentiation. […] On day 8, cells were stained with Hoechst 33342 (0.1 μg/ml; Sigma-Aldrich) for 30 min, and cell images were automatically captured at excitation/emission wavelengths of 482/[…] (GFP fluorescence) or 543/593 nm (DsRed fluorescence) using a high content analysis (HCA) system (Micro Confocal High-Content Imaging System). Image Acquisition and Analysis Software (MetaXpress) (Molecular Devices, Sunnyvale, CA, USA) was used to analyse the images. CellROX Orange (5 μM; Molecular Probes, Eugene, OR, USA) (for Aβ-GFP cells) or dichloro-dihydro-fluorescein diacetate (DCFH-DA, 10 μM; Invitrogen) (for ∆K280 tauRD-DsRed cells) was added to the cells and incubated at 37°C for 30 min. The HCA system was used to measure intracellular ROS at 531/593 nm (CellROX Orange fluorescence) or 482/536 nm (DCFH-DA fluorescence) of excitation/emission wavelengths.
# Aβ-GFP SH-SY5Y cells [4] = test: Real-time PCR of Aβ-GFP RNA; type: cell-based, Human; details: 5 μM
# Procedure: (§2) To measure the Aβ-GFP/tauRD-DsRed RNA expression on day 8, total RNA was extracted from collected cells and reverse-transcribed to cDNA (SuperScript III reverse transcriptase; Invitrogen, Waltham, MA, USA). Real-time quantitative PCR was performed using 100 ng of cDNA and the gene-specific TaqMan fluorogenic probe PN4331348 (EGFP) or customized Assays-by-Design probe for DsRed and 4326321E (HPRT1) (StepOnePlus Real-time PCR system, Applied Biosystems, Foster City, CA, USA). The RNA expression level was calculated using the formula 2^ΔCt, ΔCT = CT (control) − CT (target), in which CT indicates the cycle threshold.
# [5] = system: ∆K280 tauRD-DsRed SH-SY5Y cells; test: High content analysis of ΔK280 tauRD-DsRed fluorescence; type: cell-based, Human; details: for EC50: Homo sapiens, read-out: Extrapolated EC50 in inhibiting ∆K280 tauRD aggregation (DsRed fluorescence)
# Procedure: Human 293-derived Flp-In-293 cells (Invitrogen, Madison, WI, USA) were cultivated in Dulbecco's modified Eagle's medium (DMEM) containing 10% foetal bovine serum (FBS) (Thermo Fisher Scientific). Human neuroblastoma SH-SY5Y-derived Aβ-GFP [23] and ∆K280 tauRD-DsRed cells were kept in DMEM/nutrient mixture F12 (DMEM/F12) containing 10% FBS, 5 μg/ml blasticidin, and 100 μg/ml hygromycin (InvivoGen, San Diego, CA, USA). Doxycycline (Sigma-Aldrich) was applied to induce the expression of Aβ-GFP (5 μg/ml doxycycline) or ∆K280 tauRD-DsRed (2 μg/ml doxycycline).
# as §1
# physchem = type: physicochemical; details: aqueous buffer
# Procedure: The coumarin-chalcone derivatives (E)-4-hydroxy-3-(3-(p-tolyl)acryloyl)-2H-chromen-2-one (LM-016), (E)-3-(3-(4-(dimethylamino)phenyl)acryloyl)-4-hydroxy-2H-chromen-2-one (LM-021), and (E)-3-(3-(furan-2-yl)acryloyl)-4-hydroxy-2H-chromen-2-one (LM-022) were synthesized in our laboratory as previously described and examined by using NMR spectroscopy. The LM-016, LM-021, and LM-022 stayed soluble in cell culture medium at concentrations up to 100 μM.
# ΔK280 tauRD protein = biological target: T2, ΔK280 tauRD protein (Homo sapiens, UniProt P10636, DEL597-597); test: Thioflavin T assay of ΔK280 tauRD aggregation; type: biochemical
# T2 construct: E. coli-derived ΔK280 tauRD protein; made in house; host or cells: E. coli
# Procedure: The potential of Congo red and coumarin-chalcone derivatives in inhibiting tau misfolding was assessed using the E. coli-derived ΔK280 tauRD protein [21]. In brief, ΔK280 tauRD protein (20 μM) was incubated with the tested compound (1−10 μM) in buffer (150 mM NaCl, 20 mM Tris-HCl (pH 8.0)) at 37°C for 48 h to form aggregates. Thioflavin T (5 μM) was then added, and the mixture was incubated at room temperature for 25 min. The fluorescence intensity of the samples was measured, and the EC50 was computed as described.
# [6] = system: ∆K280 tauRD-DsRed SH-SY5Y cells; test: Real-time PCR of tauRD-DsRed RNA; type: cell-based, Human; details: 10 μM
# Procedure: as §2
# caspase 1 [7] = test: Caspase 1 activity in ΔK280 tauRD-DsRed cells; type: cell-based, Human; details: 10 μM, ∆K280 tauRD-DsRed cells
# Procedure: (§3) Aβ-GFP or ∆K280 tauRD-DsRed SH-SY5Y cells were seeded into 6-well plates (5 × 10^5/well) and treated with retinoic acid, coumarin-chalcone derivatives, and doxycycline as previously described. On day 8, cells were collected and lysates were prepared with six freeze/thaw cycles. The supernatant was collected by centrifugation, followed by measurement of the caspase 1 activity in 50 μg aliquots of cell extract using the ICE fluorometric assay kit (BioVision, Milpitas, CA, USA). Following incubation of the mixture at 37°C for 2 h, fluorescence was measured with excitation/emission wavelengths at 400/505 nm (FLx800 fluorescence microplate reader). In addition, the collected cells were lysed by sonication. Acetylcholinesterase (AChE) activity in the supernatant was determined in 10 μg aliquots of cell extracts using the AChE activity assay kit (Sigma-Aldrich) according to the manufacture's protocol. Finally, the absorbance at 412 nm was measured using a Multiskan GO spectrophotometer (Thermo Fisher Scientific).
# [8] = system: ∆K280 tauRD-DsRed SH-SY5Y cells; test: High content analysis of neurite outgrowth in ΔK280 tauRD-DsRed cells; type: cell-based, Human; details: 10 μM
# Procedure: On day 1, Aβ-GFP or ∆K280 tauRD-DsRed SH-SY5Y cells were plated into 24-well plates (6 × 10^4/well) followed by addition of retinoic acid. On day 2, cells were treated with coumarin-chalcone derivatives (5 or 10 μM) and with doxycycline (5 or 2 μg/ml) to induce the expression of Aβ-GFP or ∆K280 tauRD-DsRed. On day 8, 4% paraformaldehyde, 0.1% Triton X-100, and 3% BSA were used to fix, permeabilize, and block cells, respectively. Subsequently, the cells were stained with TUBB3 (neuronal class III β-tubulin) primary antibody (1 : 1000; Covance, Princeton, NJ, USA) at 4°C overnight. Goat anti-rabbit Alexa Fluor 555 secondary antibody (1 : 1000; Thermo Fisher Scientific) was then added, followed by a 3 h incubation at room temperature. Following staining nuclei with 4′,-6-diamidino-2-phenylindole (DAPI) (0.1 μg/ml; Sigma-Aldrich), the neurons were imaged by using the HCA system and analysed by using the Neurite Outgrowth Application Module (MetaXpress; Molecular Devices).
# To monitor the cAMP-mediated signal transduction pathway, CRE-GFP 293 cells in 6-well plates (1 × 10^6/well) were pretreated with kinase inhibitor H-89 (LC Laboratories, Woburn, MA, USA), KN-62 (Cayman Chemical, Ann Arbor, MI, USA), U0126 (LC Laboratories), or wortmannin (LC Laboratories) (10 μM) for 4 h before forskolin or LM-021 (10 μM) addition for 5 h. GFP fluorescence/protein and total/phosphorylated PKA, CaMKII, ERK, PI3K, and CREB levels were examined. In addition, Aβ-GFP or ∆K280 tauRD-DsRed SH-SY5Y cells were treated with retinoic acid (10 μM) on day 1, followed by the addition of LM-021 (5 or 10 μM) and doxycycline (5 or 2 μg/ml) on day 2, as described. Kinase inhibitors (10 μM) were added on day 6. On day 8, the cells were collected for protein expression analysis of BDNF, BCL2 (BCL2 apoptosis regulator), and BAX (BCL2 associated X, apoptosis regulator), and total/phosphorylated PKA, CaMKII, ERK, PI3K, and CREB. Also, cells were stained with DAPI and assessed for neurite outgrowth as described above.
# caspase 1 [9] = test: Caspase 1 activity in Aβ-GFP cells; type: cell-based, Human; details: 5 μM, vs untreated cells
# Procedure: as §3
# [10] = system: Acetylcholinesterase (AChE); test: AChE activity in Aβ-GFP cells; type: cell-based; details: 5 μM, vs untreated cells
# Procedure: as §3
# [11] = ∆K280 tauRD-DsRed SH-SY5Y cells, tested 2.5–10 μM
# T1 sequence (P05067 672-713 limits assumed): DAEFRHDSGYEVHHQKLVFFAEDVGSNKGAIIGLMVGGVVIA
# T2 sequence (P10636 with tags, fused parts or gaps DEL597-597): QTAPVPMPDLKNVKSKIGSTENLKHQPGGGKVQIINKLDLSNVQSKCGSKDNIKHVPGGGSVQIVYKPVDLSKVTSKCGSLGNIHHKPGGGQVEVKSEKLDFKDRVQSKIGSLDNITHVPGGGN
Compound,EC50 [1] [µM],EC50 (Aβ42 peptide) [µM],"EC50 (Aβ-GFP SH-SY5Y cells [2]; Aβ-GFP SH-SY5Y cells, tested 1.2–5 μM) [µM]",Concentration significantly augmenting green fluorescence intensity (Aβ-GFP) (Aβ-GFP SH-SY5Y cells [2]; tested 1.2–5 μM) [µM],Concentration effectively decreasing ROS levels caused by Aβ overexpression (Aβ-GFP SH-SY5Y cells [3]) [µM],Aβ-GFP RNA levels (Aβ-GFP SH-SY5Y cells [4]),"EC50 [5, 11] [µM]",solubility (physchem) [µM],EC50 (ΔK280 tauRD protein) [µM],"Concentration significantly elevating DsRed fluorescence intensity ([5]; tested 2.5–10 μM, day 8) [µM]",∆K280 tauRD-DsRed RNA level [6],Caspase 1 activity (caspase 1 [7]),Neurite length and branches [8],EC50 (Aβ-GFP SH-SY5Y cells [2]; SH-SY5Y) [µM],Caspase 1 activity (caspase 1 [9]),AChE activity [10],EC50 ([5]; SH-SY5Y) [µM],"solubility (physchem; cell culture medium, read-out: Concentration up to which the compound stayed soluble) [µM]"
"O=C(/C=C/c1ccco1)c1c(O)c2ccccc2oc1=O [LM-022, (E)-3-(3-(furan-2-yl)acryloyl)-4-hydroxy-2H-chromen-2-one]",143,18,8.2,2.5 to 5,2.5 to 5,did not significantly modify,73,≥ 100,–,–,–,–,–,–,–,–,–,–
"Nc1c(/N=N/c2ccc(-c3ccc(/N=N/c4cc(S(=O)(=O)O)c5ccccc5c4N)cc3)cc2)cc(S(=O)(=O)O)c2ccccc12 [Congo red, reference compound]",–,–,–,–,–,–,57,–,10,10,did not significantly alter,lowered caspase 1 activity,successfully ameliorated,–,–,–,–,–
"Cc1ccc(/C=C/C(=O)c2c(O)c3ccccc3oc2=O)cc1 [LM-016, (E)-4-hydroxy-3-(3-(p-tolyl)acryloyl)-2H-chromen-2-one]",126,15,–,2.5 to 5,2.5 to 5,did not significantly modify,–,–,–,–,–,–,–,7,reduced,reduced,70,≥ 100
